# Source: patent US20220333078A1, “Method for ex vivo expansion CD34+HSPCs into NK cells using an aryl hydrocarbon receptor antagonist” (Stichting Radboud universitair medisch centrum, priority 2015, published 2022)
# Tests used:
# [1] = system: G-CSF mobilized CD34+HSPCs; test: Ex vivo cytokine-based expansion and NK cell differentiation of G-CSF mobilized peripheral blood CD34+HSPCs with or without 2 μM SR1; set-up: species or system human
# Protocol: (§1) Bone marrow samples were collected from healthy donors after written informed consent. Bone marrow-derived mononuclear cells (BM-MNCs) were isolated by Ficoll-hypaque (1.077 g/mL; GE Healthcare, Uppsala, Sweden) density gradient centrifugation. Peripheral blood-derived mononuclear cells (PB-MNCs) were obtained from aphaeresis material from stem cell donors who were treated with G-CSF (Neupogen®) 10 μg/kg/day subcutaneously for 5 to 6 days, after written informed consent. CD34+HSPCs were isolated using anti-CD34 immunomagnetic beads (Miltenyi Biotech, Bergisch Gladbach, Germany) according to manufacturer's instructions. CD34+HSPCs were directly used for NK cell generation.
# CD34+HSPCs were plated into 24-well or 6-well tissue culture plates (Corning Incorporated, Corning, N.Y., USA). Cells were expanded during 9 or 10 days with a high-dose cytokine cocktail (Expansion cocktail I) consisting of 25 ng/mL IL-7 (Immunotools), 25 ng/mL SCF (Immunotools), 25 ng/mL TPO (Cellgenix) and 25 ng/mL Flt3L (Immunotools). From day 9 or 10 until day 14 or 15, TPO was replaced by 20 ng/mL IL-15 (Miltenyi). After day 14 or 15, cell differentiation was initiated by replacing Expansion cocktail I by a new high-dose cytokine cocktail (Differentiation cocktail) consisting of 20 ng/mL IL-7, 20 ng/mL SCF, 20 ng/mL IL-15 and 1000 U/mL IL-2 (Proleukin®; Chiron, München, Germany). Where mentioned, 2 μM StemRegenin1 (SR1; Cellagen Technology, San Diego, Calif., USA) was added to the culture medium (see FIG. 1A). Cells were cultured in Cellgro GMP DC medium (Cellgenix, Freiburg, Germany) supplemented with 10% human serum (HS; Sanquin Bloodbank, Nijmegen, The Netherlands) and a low dose cytokine cocktail consisting of […] G-CSF (Filgrastim, “Neupogen”—Amgen Corp. USA), 10 μg/mL GM-CSF and 50 μg/mL IL-6 (both Immunotools, Friesoythe, Germany). During the first 14 or 15 days of culture, low molecular weight heparin (Clivarin®; Abbott, Wiesbaden, Germany) was added to the medium in a final concentration of 20 μg/mL. Freshly isolated CD34+ cells were plated at a concentration of 1-4E+5/mL. After 3 days of culture, cells were transferred to a new plate in order to deplete for stromal cells. From day 14 or 15 onward, cell counts were kept above 2E+6 cells/mL. Cell cultures were refreshed with at least 30% new medium every 2 to 3 days. Cultures were maintained at 37° C., in 95% humidity, and 5% CO2. NK cells were used in experiments after 5 weeks of culture.
# (§2) Cell numbers and expression of cell-surface markers were determined by FCM. Anti-human CD45-ECD (J.33, Beckman Coulter, Woerden, The Netherlands) and anti-CD56-PC7 (HCD56, Biolegend, San Diego, Calif., USA) antibodies were used to follow cell number and NK cell differentiation during culture using the Coulter FC500 flow cytometer (Beckman Coulter). The population of viable CD45+ cells was determined by exclusion of 7-AAD (Sigma, St Louis, Mo., USA) positive cells. For phenotypical analysis, cells were incubated with antibodies in FCM buffer (PBS/0.5% bovine serum albumin (BSA; Sigma) for 30 minutes at 4° C. After washing, cells were resuspended in FCM buffer and analyzed. The following conjugated monoclonal antibodies were used for NK cell phenotyping: anti-NKG2A-PE (Z199; Beckman Coulter), anti-DNAM-1-FITC (DX 11; BD Biosciences Pharmingen, Breda, The Netherlands), anti-CD16-FITC (3G8), anti-CD3-FITC (UCHT1), anti-NKG2D-PE (1D11), anti-NKp30-PE (P30-15), anti-NKp44-PE (P44-8), anti-NKp46-PD (9E5), anti-CD158b-PE (Dx27), anti-CD158e-PE (Dx9), anti-CD158a/h-PE (HP-MA4), anti-CD62L-PE (DREG56), anti-CD253-PE (RIK-2), anti-CXCR3-PE (G025H7), anti-CXCR4-PE (12G5), anti-IgG1-PE (MOPC-21), anti-IgG2a-PE (MOPC-173), anti-IgG2b-PE (MCP-11), anti-IgG1-FITC (MOPC-21; all from Biolegend).
# BM-derived CD34+HSPCs = test: Ex vivo cytokine-based expansion and NK cell differentiation of bone marrow-derived CD34+HSPCs with or without 2 μM SR1; set-up: species or system human
# Protocol: as §1
# CD34+HSPCs were plated into 24-well or 6-well tissue culture plates (Corning Incorporated, Corning, N.Y., USA). Cells were expanded during 9 or 10 days with a high-dose cytokine cocktail (Expansion cocktail I) consisting of 25 ng/mL IL-7 (Immunotools), 25 ng/mL SCF (Immunotools), 25 ng/mL TPO (Cellgenix) and 25 ng/mL Flt3L (Immunotools). […]
# as §2, with “Anti-human CD45-ECD (J.33, Beckman Coulter, Woerden, The Netherlands) and anti-CD56-PC7 (HCD56, Biolegend, San Diego, Calif., USA) antibodies were used to follow cell number and NK cell differentiation during culture using the Coulter FC500 flow cytometer (Beckman Coulter).” left out
# AhR = test: qRT-PCR of AhRR and NK cell transcription factors in HSPC-NK cultures with or without SR1; type: cell-based, human
# Protocol: Total RNA from 0.5-2E+5 cells, collected weekly from HSPC-NK cell cultures, was isolated using the Quick-RNA™ MicroPrep Kit (Zymo Research, CA, USA). Next, cDNA was synthesized using M-MLV-reverse transcriptase (Invitrogen) in a standard reaction as described before, after which real-time PCR was performed using the following Taqman Gene expression assays (Applied Biosystems, Forster City, Calif., USA): AhRR (Hs01005075_m1); TOX (Hs01055573_m1); ID2 (Hs04187239_m1); EOMES (Hs00172872_m1); GATA3 (Hs00231122_m1); SH2D1B (Hs01592483_m1); IFNG (Hs00989291_m1); GZMB (Hs01554355_m1); PRF1 (Hs99999108_m1). For all genes, Ct values were normalized to GAPDH (Hs02758991_g1) by calculating ΔCt=Cttarget gene−CtGAPDH per sample. Finally, gene expression levels were quantified relative to GAPDH as follows: 2^(−[ΔCt]).
# After 5 weeks of culture, CD56+ cells were isolated from the total cultured cells. For this purpose cells were stained for 15 minutes at 4° C. using the appropriate concentration of anti-CD56-PEcy7 (CD56-PC7 (HCD56, Biolegend). Cells were washed and resuspended in FACS buffer at a concentration of 1.5E+6/mL, and subsequently sorted at the FACSAria Cell Sorter (BD Biosciences).
# CD56+NK cells = test: FCM phenotype of CD56+NK cells after 35 days of culture; type: cell-based, human; conditions: generated in the presence vs absence of SR1
# Protocol: as §2
# [2] = system: CD34+ cells enriched from UCB, BM and mobilized blood; test: SR1-based culture without heparin and low dose cytokines (UCB, BM and mobilized blood CD34+ cells); type: cell-based, human
# From the text: Representation of the new ex vivo SR1-based culture protocol used for the generation of NK cells. In the expansion step, CD34+ cells are expanded and differentiated into NK progenitors using SCF, Flt3L, IL-7, TPO and an aryl hydrocarbon antagonist, preferably SR1. Thereafter, NK progenitors are further differentiated using IL-15, IL-12 and/or IL-2.
# In earlier studies, we exploited a phased based addition of cytokines in heparin-based basal media (5-7). Heparin is able to bind certain cytokines, reducing their degradation and perhaps presenting them in a more physiological manner. Furthermore, low dose cytokine cocktail containing G-CSF, GM-CSF and IL-6 was being used, which was based on studies using the fetal liver-derived stromal cell line AFT024 [59]. Since we observed that the AhR antagonist is a crucial component for the ex vivo expansion of NK cells from BM and mobilized blood CD34+HSPCs, we investigated whether we could simplify the culture method by leaving out heparine and low dose cytokines G-CSF, GM-SCF and IL-6 that have mainly an effect on myeloid progenitor cells (see FIG. 7).
# HSPC-NK cells = test: Proliferation (CFSE dilution) and viability of HSPC-NK cells cultured 7 days with MPA or CsA; type: cell-based, human
# Protocol: HSPC-NK cells were cultured according to our culture protocol for 35 days. After 35 days, NK cells were labeled with 1 μM CFSE as described previously. After staining, cells were resuspended in differentiation medium at a concentration of 2E+6/mL and plated in duplicate in a 96-well plate. […] After 7 days, cells were harvested. The number of viable target cells was quantified by FCM by gating on forward scatter and side scatter and exclusion of 7-AAD positive cells. Proliferation was analyzed by determining the CFSE dilution within CD56+ cells.
# K562 cells = test: K562 killing and IFN-γ production by NK cells cultured in the presence of MPA or CsA; type: cell-based, human
# Protocol: Cell lines were labeled with 1 μM carboxyfluorescein diacetate succinimidyl ester (CFSE; Molecular Probes Invitrogen, Eugene, Oreg., USA) and primary AML blasts were labeled with 1.5 μM CFSE, both in a concentration of 1E+7/mL for 10 minutes at 37° C. The reaction was terminated by adding an equal volume of FCS. After washing, cells were resuspended in IMDM/10% FCS to a final concentration of 3E+5/mL. Target cells (3E+4) were co-cultured in triplicate with effector cells at different effector:target (E:T) ratios in a total volume of 200 μL IMDM/10% FCS in 96-wells round-bottom plates (Corning Incorporated). Effector cells and target cells alone were plated out in triplicate as controls. […] Cells were harvested and the number of viable target cells was quantified by FCM by gating on forward scatter and side scatter and exclusion of 7-AAD positive cells. Target cell survival was calculated as follows: % survival=([absolute number of viable CFSE+ target cells co-cultured with NK cells]/[absolute number of viable CFSE+ target cells cultured in medium])×100%. The percentage specific lysis was calculated as follows: % lysis=(100−[% survival]), as described earlier by Jedema et al. Degranulation of NK cells during overnight co-culture was determined as the percentage of CD107a expressing cells measured by FCM. […]
# CD34+UCB cells = conditions: after 25 days of culture with IL-1β; cited from earlier work
# [3] = FACS-sorted CD56+NK cells after 5 weeks, SR1 vs no SR1
compound,measurement,setting,value
"CC(C)n1cnc2c(NCCc3ccc(O)cc3)nc(-c3csc4ccccc34)nc21 [SR1, StemRegenin 1]",Mean NK cell yield after 5 weeks of culture,"[1]; G-CSF mobilized CD34+ cells, 2 μM SR1, range 115-904 fold, n=10",235 fold
same,"purity (NK cell differentiation, CD56+)","[1]; G-CSF mobilized CD34+HSPCs, with SR1, 5 weeks",83%±9%
same,expansion of CD34+ cells,"[1]; PB-derived HSPCs, addition of 2 μM SR1 vs no SR1",strongly enhanced expansion of CD34+ cells
same,amount of CD3+ T cells,[1]; SR1-based NK cell cultures,0.1%±0.1%
same,average expansion of G-CSF-mobilized CD34+ cells,[1]; SR1-based protocol,268 fold
same,frequency of CD34+ cells at the end of the culture process,[1]; SR1 cultures,0.7%±0.4%
same,remaining non-NK cells: CD14+ and/or CD15+ mature monocytic and myelocytic cells,"[1]; SR1 cultures, end of culture",11%±6%
same,"purity (NK cell differentiation, CD56+)","BM-derived CD34+HSPCs; BM-derived CD34+ cells, with SR1, 5 weeks",84%±18%
same,Mean NK cell yield after 5 weeks of culture,"BM-derived CD34+HSPCs; BM-derived CD34+HSPCs, 2 μM SR1, range 33-301, n=4",129 fold
same,expansion of CD34+ cells,"BM-derived CD34+HSPCs; BM-derived HSPCs, addition of 2 μM SR1 vs no SR1",strongly enhanced expansion of CD34+ cells
same,IFN-γ mRNA expression,"AhR; FACS-sorted CD56+NK cells after 5 weeks, not exposed to target cells, SR1 vs no SR1",not increased
same,GATA-3 and EAT-2 expression,AhR; [3],similar
same,GZMB and PERF expression,AhR; [3],"slightly higher, but not significantly increased"
same,"TOX, ID2 and EOMES expression",AhR; [3],did not observe increased expression
same,AhRR expression relative to GAPDH,"AhR; total cells, 2 μM SR1 vs no SR1",efficient down regulation
same,EOMES expression relative to GAPDH,"AhR; total cells, SR1 vs no SR1",upregulated from week three onward
same,GATA-3 and EAT-2 (SH2D1B) expression relative to GAPDH,"AhR; total cells, SR1 vs no SR1",increased in cells cultured in the presence of SR1
same,ID2 expression relative to GAPDH,"AhR; total cells, SR1 vs no SR1",increased from day 14 onwards
same,TOX expression relative to GAPDH,"AhR; total cells, from day 7 onward, SR1 vs no SR1",higher expression
same,"presence of CD62L, CXCR3, DNAM-1 and TRAIL on CD56+ cells",CD56+NK cells,significantly higher
same,expansion of CD56+NK cells from CD34+ cells,"[2]; 2 μM SR1 for 21 days, no heparin, G-CSF, GM-CSF, IL-6",promotes the expansion of CD56+NK cells
same,"remaining non-NK cells, mainly CD14+ monocytic cells",[2]; SR1-based cultures without heparin and low dose cytokines,< 20%
"COc1c(C)c2c(c(O)c1C/C=C(\C)CCC(=O)O)C(=O)OC2 [MPA, mycophenolic acid]",proliferation of HSPC-NK cells,HSPC-NK cells; MPA 0.1 μg/ml,already inhibited
same,NK cell viability,HSPC-NK cells; MPA 0.1 to 10 μg/mL or CsA 0.01 to 1 μg/mL,induced dose-dependent cell death
same,NK cell-mediated killing of K562 cells,"K562 cells; NK cells cultured with drug, overnight, E:T 1:1",impaired killing
same,IFN-γ production,"K562 cells; NK cells incubated with drug, overnight co-culture with K562, E:T 1:1",impaired IFN-γ production
IL-1β: cytokine added at the beginning of CD34+UCB culture in the protocol of Ambrosini et al.,"overall percentage of CD56+NK cells expressing CD161, LFA1, NKG2A, NKp46, EOMES and perforin",CD34+UCB cells,< 20%
